Experimental data published in publication PMC5218480 (PLoS ONE, 2017).

System: MV-4-11 cells
Test: Gene expression microarray analysis (Affymetrix PrimeView) and GSEA
Type: cell-based, human
Set-up: RFU PODN (11730768_x_at) / Fold change /veh PODN (11730768_x_at) / RFU LINC00158 (11744669_a_at) / Fold change /veh LINC00158 (11744669_a_at) / RFU DUSP10 (11751237_a_at) / Fold change /veh DUSP10 (11751237_a_at) / RFU ID3 (11757404_x_at) / Fold change /veh ID3 (11757404_x_at) / RFU PLEKHG5 (11737974_s_at) / Fold change /veh PLEKHG5 (11737974_s_at) / RFU LRRC4B (11730491_at) / Fold change /veh LRRC4B (11730491_at) / RFU GIMAP4 (11747438_a_at) / Fold change /veh GIMAP4 (11747438_a_at) / RFU KRT8 (11758183_x_at) / Fold change /veh KRT8 (11758183_x_at) / RFU CNN1 (11734310_a_at) / Fold change /veh CNN1 (11734310_a_at) / RFU VPS37D (11726825_at) / Fold change /veh VPS37D (11726825_at) / RFU C10orf10 (11716522_x_at) / Fold change /veh C10orf10 (11716522_x_at) / RFU KIR2DL2 /// KIR2DL4 /// KIR2DL5A /// KIR2DL5B /// KIR2DS1 /// KIR2DS2 /// KIR2DS3 /// KIR2DS4 /// KIR3DL3 /// KIR3DL3 /// KIR3DS1 (11738374_at) / Fold change /veh KIR2DL2 /// KIR2DL4 /// KIR2DL5A /// KIR2DL5B /// KIR2DS1 /// KIR2DS2 /// KIR2DS3 /// KIR2DS4 /// KIR3DL3 /// KIR3DL3 /// KIR3DS1 (11738374_at) / RFU C1QL1 (11718748_at) / Fold change /veh C1QL1 (11718748_at) / RFU TMPRSS4 (11747572_a_at) / Fold change /veh TMPRSS4 (11747572_a_at) / RFU HAMP (11756126_x_at) / Fold change /veh HAMP (11756126_x_at) / RFU RNFT2 (11725882_a_at) / Fold change /veh RNFT2 (11725882_a_at) / RFU NR4A2 (11747474_a_at) / Fold change /veh NR4A2 (11747474_a_at) / RFU ABCC12 (11746883_a_at) / Fold change /veh ABCC12 (11746883_a_at) / RFU TMEM136 (11760407_x_at) / Fold change /veh TMEM136 (11760407_x_at) / RFU CLDN22 /// WWC2 (11732394_at) / Fold change /veh CLDN22 /// WWC2 (11732394_at) / RFU HLA-DPB1 (11760878_x_at) / Fold change /veh HLA-DPB1 (11760878_x_at) / RFU SPINT1 (11716480_a_at) / Fold change /veh SPINT1 (11716480_a_at) / RFU GAP43 (11754022_s_at) / Fold change /veh GAP43 (11754022_s_at) / RFU A4GNT (11735810_at) / Fold change /veh A4GNT (11735810_at) / RFU PRB3 (11715151_x_at) / Fold change /veh PRB3 (11715151_x_at) / RFU TUBB4B (11761932_at) / Fold change /veh TUBB4B (11761932_at) / RFU CAPN14 (11732068_a_at) / Fold change /veh CAPN14 (11732068_a_at) / RFU TMCC2 (11721928_a_at) / Fold change /veh TMCC2 (11721928_a_at) / RFU IRGQ (11745062_a_at) / Fold change /veh IRGQ (11745062_a_at) / RFU FAM174B (11720279_a_at) / Fold change /veh FAM174B (11720279_a_at) / RFU TMPRSS4 (11748680_a_at) / Fold change /veh TMPRSS4 (11748680_a_at) / RFU FAM212B (11763350_a_at) / Fold change /veh FAM212B (11763350_a_at) / RFU PLEKHG5 (11743358_a_at) / Fold change /veh PLEKHG5 (11743358_a_at) / RFU ZSCAN30 (11745921_a_at) / Fold change /veh ZSCAN30 (11745921_a_at) / RFU CMKLR1 (11741424_a_at) / Fold change /veh CMKLR1 (11741424_a_at) / RFU LOC101060620 /// MAPK8IP1 (11723275_at) / Fold change /veh LOC101060620 /// MAPK8IP1 (11723275_at) / RFU SPTSSB (11747773_x_at) / Fold change /veh SPTSSB (11747773_x_at) / RFU PRSS12 (11739890_at) / Fold change /veh PRSS12 (11739890_at) / RFU BIN1 (11741810_x_at) / Fold change /veh BIN1 (11741810_x_at) / RFU WNT11 (11732464_a_at) / Fold change /veh WNT11 (11732464_a_at) / RFU C10orf10 (11716521_a_at) / Fold change /veh C10orf10 (11716521_a_at) / RFU C5orf56 (11738089_at) / Fold change /veh C5orf56 (11738089_at) / RFU CYB561 (11721691_x_at) / Fold change /veh CYB561 (11721691_x_at) / RFU ANKRD19P (11752326_a_at) / Fold change /veh ANKRD19P (11752326_a_at) / RFU OR2T12 /// OR2T33 /// OR2T8 (11738714_s_at) / Fold change /veh OR2T12 /// OR2T33 /// OR2T8 (11738714_s_at) / RFU VCAN (11748164_a_at) / Fold change /veh VCAN (11748164_a_at) / RFU JSRP1 (11732532_at) / Fold change /veh JSRP1 (11732532_at) / RFU KRTAP10-11 (11738290_x_at) / Fold change /veh KRTAP10-11 (11738290_x_at) / RFU MYO3A (11730013_a_at) / Fold change /veh MYO3A (11730013_a_at) / RFU EBF3 (11725865_a_at) / Fold change /veh EBF3 (11725865_a_at) / RFU CAMK2N1 (11719241_x_at) / Fold change /veh CAMK2N1 (11719241_x_at) / RFU C5orf56 (11738088_a_at) / Fold change /veh C5orf56 (11738088_a_at) / RFU OLFML3 (11715873_a_at) / Fold change /veh OLFML3 (11715873_a_at) / RFU LOC100653217 /// NTM (11731650_a_at) / Fold change /veh LOC100653217 /// NTM (11731650_a_at) / RFU MAPK11 (11762145_a_at) / Fold change /veh MAPK11 (11762145_a_at) / RFU FIZ1 (11724087_x_at) / Fold change /veh FIZ1 (11724087_x_at) / RFU OASL (11726364_x_at) / Fold change /veh OASL (11726364_x_at) / RFU SOX15 (11748057_x_at) / Fold change /veh SOX15 (11748057_x_at) / RFU CD79A (11719716_a_at) / Fold change /veh CD79A (11719716_a_at) / RFU HIST1H1D (11736915_at) / Fold change /veh HIST1H1D (11736915_at) / RFU CASKIN2 (11723855_a_at) / Fold change /veh CASKIN2 (11723855_a_at) / RFU LOC730098 (11760151_x_at) / Fold change /veh LOC730098 (11760151_x_at) / RFU OR4N2 (11742367_at) / Fold change /veh OR4N2 (11742367_at) / RFU PRRT2 (11749266_a_at) / Fold change /veh PRRT2 (11749266_a_at) / RFU SNX32 (11753110_a_at) / Fold change /veh SNX32 (11753110_a_at) / RFU CDHR5 (11726645_a_at) / Fold change /veh CDHR5 (11726645_a_at) / RFU RCAN1 (11760418_a_at) / Fold change /veh RCAN1 (11760418_a_at) / RFU FAM167A (11723789_a_at) / Fold change /veh FAM167A (11723789_a_at) / RFU FAM26E (11764081_at) / Fold change /veh FAM26E (11764081_at) / RFU ISYNA1 (11749810_s_at) / Fold change /veh ISYNA1 (11749810_s_at) / RFU ACY1 (11761880_at) / Fold change /veh ACY1 (11761880_at) / RFU 11764098_at / Fold change /veh 11764098_at / RFU SAMD14 (11745864_x_at) / Fold change /veh SAMD14 (11745864_x_at) / RFU NPB (11741838_a_at) / Fold change /veh NPB (11741838_a_at) / RFU TMPRSS6 (11731388_a_at) / Fold change /veh TMPRSS6 (11731388_a_at) / RFU KRTAP10-2 (11738614_at) / Fold change /veh KRTAP10-2 (11738614_at) / RFU ARHGAP8 /// PRR5-ARHGAP8 (11727945_x_at) / Fold change /veh ARHGAP8 /// PRR5-ARHGAP8 (11727945_x_at) / RFU KRTAP5-7 /// NADSYN1 (11734609_at) / Fold change /veh KRTAP5-7 /// NADSYN1 (11734609_at) / RFU RASL12 (11751679_a_at) / Fold change /veh RASL12 (11751679_a_at) / RFU CDKN2B (11736163_a_at) / Fold change /veh CDKN2B (11736163_a_at) / RFU PRF1 (11729649_at) / Fold change /veh PRF1 (11729649_at) / RFU, ZNF638 /// ZNF638-IT1 / Fold change vs veh, ZNF638 /// ZNF638-IT1 / RFU, PANK3 / Fold change vs veh, PANK3 / RFU, SH3YL1 / Fold change vs veh, SH3YL1 / RFU, ZEB2 / Fold change vs veh, ZEB2 / RFU, NRIP1 / Fold change vs veh, NRIP1 / RFU, PTTG1IP / Fold change vs veh, PTTG1IP / RFU, CAPN2 / Fold change vs veh, CAPN2 / RFU, MED14 / Fold change vs veh, MED14 / RFU, SNORA58 / Fold change vs veh, SNORA58 / RFU, C1orf63 / Fold change vs veh, C1orf63 / RFU, LRRFIP1 / Fold change vs veh, LRRFIP1 / RFU, NDUFAF7 / Fold change vs veh, NDUFAF7 / RFU, SLC12A2 / Fold change vs veh, SLC12A2 / RFU, IBTK / Fold change vs veh, IBTK / RFU, ESF1 / Fold change vs veh, ESF1 / Fold change vs veh, TMEM50B / RFU, TAOK1 / Fold change vs veh, TAOK1 / RFU, ACBD3 / Fold change vs veh, ACBD3 / RFU, TMA16 / Fold change vs veh, TMA16 / RFU, RWDD3 / Fold change vs veh, RWDD3 / RFU, BCAT1 / Fold change vs veh, BCAT1 / RFU, EDEM3 / Fold change vs veh, EDEM3 / RFU, TMEM33 / Fold change vs veh, TMEM33 / RFU, WDR75 / Fold change vs veh, WDR75 / RFU, AHCTF1 / Fold change vs veh, AHCTF1 / RFU, TFRC / Fold change vs veh, TFRC / RFU, ZDHHC17 / Fold change vs veh, ZDHHC17 / RFU, NOM1 / Fold change vs veh, NOM1 / RFU, ARL8B / Fold change vs veh, ARL8B / RFU, ZBTB11 / Fold change vs veh, ZBTB11 / RFU, TAMM41 / Fold change vs veh, TAMM41 / RFU, KIAA1704 /// LOC100996395 / Fold change vs veh, KIAA1704 /// LOC100996395 / RFU, ING1 / Fold change vs veh, ING1 / RFU, TRMT61B / Fold change vs veh, TRMT61B / RFU, FUBP3 / Fold change vs veh, FUBP3 / RFU, TP53 / Fold change vs veh, TP53 / RFU, TNKS2 / Fold change vs veh, TNKS2 / RFU, ZFP14 / Fold change vs veh, ZFP14 / RFU, ACTR2 / Fold change vs veh, ACTR2 / RFU, PPP3R1 / Fold change vs veh, PPP3R1 / RFU, PIK3R1 / Fold change vs veh, PIK3R1 / RFU, HNRNPA1 / Fold change vs veh, HNRNPA1 / RFU, RNF170 / Fold change vs veh, RNF170 / RFU, ZNF28 / Fold change vs veh, ZNF28 / RFU, RNGTT / Fold change vs veh, RNGTT / RFU, OGT / Fold change vs veh, OGT / RFU, BRD1 / Fold change vs veh, BRD1 / RFU, MARS / Fold change vs veh, MARS / RFU, ZNF655 / Fold change vs veh, ZNF655 / RFU, FAHD1 / Fold change vs veh, FAHD1 / RFU, BDP1 / Fold change vs veh, BDP1 / RFU, LRRCC1 / Fold change vs veh, LRRCC1 / RFU, ARID1A / Fold change vs veh, ARID1A / RFU, ZNF146 / Fold change vs veh, ZNF146 / RFU, ZNF330 / Fold change vs veh, ZNF330 / RFU, GPN3 / Fold change vs veh, GPN3 / RFU, C9orf123 / Fold change vs veh, C9orf123 / RFU, N4BP2L2 / Fold change vs veh, N4BP2L2 / RFU, ARFIP1 / Fold change vs veh, ARFIP1 / RFU, FAM179B / Fold change vs veh, FAM179B / RFU, BCL10 / Fold change vs veh, BCL10 / RFU, UHRF1BP1L / Fold change vs veh, UHRF1BP1L / RFU, BET1 / Fold change vs veh, BET1 / RFU, CNOT2 / Fold change vs veh, CNOT2 / RFU, ZNF268 / Fold change vs veh, ZNF268 / Fold change vs veh, ZNF507 / RFU, DGCR2 / Fold change vs veh, DGCR2 / RFU, WDSUB1 / Fold change vs veh, WDSUB1 / Fold change vs veh, HSP90B1 /// MIR3652 / RFU, ADSS / Fold change vs veh, ADSS / RFU, GK / Fold change vs veh, GK / RFU, ZNF148 / Fold change vs veh, ZNF148 / RFU, TAF9 / Fold change vs veh, TAF9 / RFU, SLC1A5 / Fold change vs veh, SLC1A5 / RFU, SLMO2 / Fold change vs veh, SLMO2 / RFU, ABCC4 / Fold change vs veh, ABCC4 / RFU, LOC101060439 /// RAP1B / Fold change vs veh, LOC101060439 /// RAP1B / RFU, RFX7 / Fold change vs veh, RFX7 / RFU, GTPBP10 / Fold change vs veh, GTPBP10 / RFU, CNEP1R1 / Fold change vs veh, CNEP1R1 / RFU, BIVM-ERCC5 /// ERCC5 / Fold change vs veh, BIVM-ERCC5 /// ERCC5 / RFU, ILF3 / Fold change vs veh, ILF3 / RFU 11762660_at / Fold change /veh 11762660_at / RFU VCAN (11757783_s_at) / Fold change /veh VCAN (11757783_s_at) / RFU DDX43 (11728927_at) / Fold change /veh DDX43 (11728927_at) / RFU KRT8 (11758188_x_at) / Fold change /veh KRT8 (11758188_x_at) / RFU NKD1 (11759106_at) / Fold change /veh NKD1 (11759106_at) / RFU SRD5A1 (11742802_a_at) / Fold change /veh SRD5A1 (11742802_a_at) / RFU TPSAB1 /// TPSB2 (11721975_s_at) / Fold change /veh TPSAB1 /// TPSB2 (11721975_s_at) / RFU GSTM3 (11746129_a_at) / Fold change /veh GSTM3 (11746129_a_at) / RFU IL23R (11737362_x_at) / Fold change /veh IL23R (11737362_x_at) / RFU TMEM51 (11727254_a_at) / Fold change /veh TMEM51 (11727254_a_at) / RFU PIWIL2 (11732686_x_at) / Fold change /veh PIWIL2 (11732686_x_at) / RFU ORM1 (11744905_x_at) / Fold change /veh ORM1 (11744905_x_at) / RFU CCDC152 (11743942_at) / Fold change /veh CCDC152 (11743942_at) / RFU ECM1 (11717891_a_at) / Fold change /veh ECM1 (11717891_a_at) / RFU IL23R (11748794_a_at) / Fold change /veh IL23R (11748794_a_at) / RFU TNFAIP8L3 (11732012_x_at) / Fold change /veh TNFAIP8L3 (11732012_x_at) / RFU MBOAT4 (11741988_at) / Fold change /veh MBOAT4 (11741988_at) / RFU 11764193_at / Fold change /veh 11764193_at / RFU TMEM53 (11763286_at) / Fold change /veh TMEM53 (11763286_at) / RFU MAGEB2 (11727129_at) / Fold change /veh MAGEB2 (11727129_at) / RFU TMEM200A (11744735_a_at) / Fold change /veh TMEM200A (11744735_a_at) / RFU CCDC152 (11751479_a_at) / Fold change /veh CCDC152 (11751479_a_at) / RFU FAM211A (11726209_a_at) / Fold change /veh FAM211A (11726209_a_at) / RFU RGS16 (11746705_a_at) / Fold change /veh RGS16 (11746705_a_at) / RFU VCAN (11755009_s_at) / Fold change /veh VCAN (11755009_s_at) / RFU RHOB (11743442_s_at) / Fold change /veh RHOB (11743442_s_at) / RFU RGS16 (11720943_a_at) / Fold change /veh RGS16 (11720943_a_at) / RFU RGS16 (11720944_at) / Fold change /veh RGS16 (11720944_at) / RFU, VPS4B / Fold change vs veh, VPS4B / RFU, CREB1 / Fold change vs veh, CREB1 / RFU, DNAJC13 / Fold change vs veh, DNAJC13 / RFU, GNAQ / Fold change vs veh, GNAQ / RFU, CDK5R1 / Fold change vs veh, CDK5R1 / RFU, ZRANB3 / Fold change vs veh, ZRANB3 / RFU, CUL4A / Fold change vs veh, CUL4A / RFU, CCNY / Fold change vs veh, CCNY / RFU, UFL1 / Fold change vs veh, UFL1 / RFU, COG3 / Fold change vs veh, COG3 / RFU, DIAPH2 / Fold change vs veh, DIAPH2 / RFU, SKA2 / Fold change vs veh, SKA2 / RFU, AFF3 / Fold change vs veh, AFF3 / RFU, LMF1 / Fold change vs veh, LMF1 / RFU, IPO11 / Fold change vs veh, IPO11 / RFU, DFFB / Fold change vs veh, DFFB / RFU, FOXP1 / Fold change vs veh, FOXP1 / RFU, CARD8 / Fold change vs veh, CARD8 / RFU, STRN3 / Fold change vs veh, STRN3 / RFU, ADK / Fold change vs veh, ADK / RFU, RASSF2 / Fold change vs veh, RASSF2 / RFU, WIPF1 / Fold change vs veh, WIPF1 / RFU, LARP1B / Fold change vs veh, LARP1B / RFU, RASA1 / Fold change vs veh, RASA1 / RFU, RB1 / Fold change vs veh, RB1 / RFU, PPFIA1 / Fold change vs veh, PPFIA1 / RFU, MAT2A / Fold change vs veh, MAT2A / RFU, CCT5 / Fold change vs veh, CCT5 / RFU, WDR92 / Fold change vs veh, WDR92 / RFU, CUX1 / Fold change vs veh, CUX1 / RFU, TTC7A / Fold change vs veh, TTC7A / RFU, TMEM135 / Fold change vs veh, TMEM135 / RFU, DEPTOR / Fold change vs veh, DEPTOR / RFU, CPM / Fold change vs veh, CPM / RFU, DNAJB6 / Fold change vs veh, DNAJB6 / RFU, CACNA2D3 / Fold change vs veh, CACNA2D3 / RFU, DTX4 / Fold change vs veh, DTX4 / RFU, TFCP2 / Fold change vs veh, TFCP2 / RFU, GMCL1 /// GMCL1P1 / Fold change vs veh, GMCL1 /// GMCL1P1 / RFU, AEBP2 / Fold change vs veh, AEBP2 / RFU, SNHG1 /// SNORD22 /// SNORD25 /// SNORD26 /// SNORD27 /// SNORD28 /// SNORD29 /// SNORD31 / Fold change vs veh, SNHG1 /// SNORD22 /// SNORD25 /// SNORD26 /// SNORD27 /// SNORD28 /// SNORD29 /// SNORD31 / Fold change (Aza/veh), C12orf56 (ProbeSet 11735607_a_at) / Fold change (ACY-1035/veh), C12orf56 (ProbeSet 11735607_a_at) / Fold change (Aza/veh), FGFR1OP (ProbeSet 11751329_s_at) / Fold change (ACY-1035/veh), FGFR1OP (ProbeSet 11751329_s_at) / Fold change (Aza/veh), VPS36 (ProbeSet 11739960_a_at) / Fold change (ACY-1035/veh), VPS36 (ProbeSet 11739960_a_at) / RFU SYPL1 (11715823_x_at) / Fold change /veh SYPL1 (11715823_x_at) / RFU IGFBP7 (11715501_s_at) / Fold change /veh IGFBP7 (11715501_s_at) / RFU REEP3 (11722064_at) / Fold change /veh REEP3 (11722064_at) / RFU IGLL1 (11728026_x_at) / Fold change /veh IGLL1 (11728026_x_at): dose or concentration left out as unconfirmed
Conditions: MV-4-11 cells, 48 hours

With `Nc1ncn([C@@H]2O[C@H](CO)[C@@H](O)[C@H]2O)c(=O)n1` [azacitidine] the “RFU SNX32 (11753110_a_at)” value was 6.16 RFU.
